Measurements: patent EP1295874A2, “Retroviral protease inhibiting compounds” (Abbott Laboratories, priority 1995, dated 1997)
Like-named read-outs stand apart in the source and are kept apart here.

Experiments:
HIVIIIB = assay: Antiviral activity (anti-HIV activity) in MT4 cells, MTT readout; format: cell-based; conditions: Human immunodeficiency virus 1, MT4, 120 h, read-out: IC50 (µM, 0% plasma)
From the text: (§1) The anti-HIV activity of the compound of the invention can be determined in MT4 cells according to the following procedure. MT4 cells were infected with cell-free supernatant of HIVIIIB (previously frozen with known 50% tissue culture infectious dose (TCID50) at 0.003 multiplicity of infection (MOI) for one hour. After one hour infection, cells were washed twice to remove residual viruses, resuspended in culture media and seeded into 96-well tissue culture plates at 1x10^4 cells per well with various half-log dilutions of compounds. Uninfected cells are included as toxicity and cell controls. RPMI 1640 media (Gibco ) with 10% fetal bovine serum were used as culture media. Various concentrations of human serum (Sigma) 50%, 25% and 12.5% were added to culture media resulting in final concentration of 60%, 35% and 22.5% total serum. All assay plates were incubated in 37 deg. cent. incubator for 5 days. MTT (sigma, 5 mg/ml stock in PBS) was added to all wells at 25 ul per well, incubate for 4 hours. 20%SDS with 0.02 N HCl in water was added at 50 ul per well to lyse cellls. Plates incubated overnight for complete lyses were read on a microtitre plate reader at 570/650 nm wavelengths to determine cell optical density (O.D.). Raw data were analysed for percent inhibition by the following formula: (O.D. test well - O.D. virus control)/(O.D. cell control -O.D. virus control)x100 [formula] The 50% effective concentration (EC50) was calculated by the median effect equation (Chou, 1975,Proc. Int. Cong. Pharmacol. 6th p. 619) to determine the efficacy of compound. The 50% lethal concentration (LC50) was calculated using uninfected MT4 cells.
(§2) Under these conditions, the following data were obtained (n = 4 duplicate determinations: Table 2

[1] = 50% lethal concentration in uninfected MT4 cells (MTT); format: cell-based; conditions: human, read-out: LC50
From the text: as §1, §2

HIV protease = biological target: T1, HIV protease (Human immunodeficiency virus type 1 group M subtype B, UniProt P04585); assay: Fluorogenic Assay for Screening Inhibitors of HIV Protease; format: biochemical; conditions: read-out: Percent Inhibition
T1 construct: HIV protease consists of two identical subunits, each of which has 99 amino acid residues
Procedure: The inhibitory potency of the compound of the invention can be determined by the following method.
The compound of the invention is dissolved in DMSO and a small aliquot further diluted with DMSO to 100 times the final concentration desired for testing. The reaction is carried out in a 6 X 50 mm tube in a total volume of 300 microliters. The final concentrations of the components in the reaction buffer are: 125 mM sodium acetate, 1 M sodium chloride, 5 mM dithiothreitol, 0.5 mg/ml bovine serum albumin, 1.3 µM fluorogenic substrate, 2% (v/v) dimethylsulfoxide, pH 4.5. After addition of inhibitor, the reaction mixture is placed in the fluorometer cell holder and incubated at 30°C for several minutes. The reaction is initiated by the addition of a small aliquot of cold HIV protease. The fluorescence intensity (excitation 340 nm, emmision 490 nM) is recorded as a function of time. The reaction rate is determined for the first six to eight minutes. The observed rate is directly proportional to the moles of substrate cleaved per unit time. The percent inhibition is 100 X (1 - (rate in presence of inhibitor)/(rate in absence of inhibitor)).
Fluorogenic substrate: Dabcyl-Gaba-Ser-Gln-Asn-Tyr-Pro-lle-Val-Gln-EDANS wherein DABCYL = 4-(4-dimethylamino-phenyl)azobenzoic acid, Gaba = γ-aminobutyric acid, and EDANS = 5-((2-aminoethyl)amino)-naphthalene-1-sulfonic acid.

[2] = Inhibitor Concentration 0.5 nanomolar

Compound | IC50 (HIVIIIB) [µM] | CC50 at 120 h [1] [nM] | inhibition at 0.0005 µM (HIV protease; [2]) [%] | inhibition at 0.0005 µM (HIV protease) [%] | inhibition at 0.001 µM (HIV protease; Inhibitor Concentration 1.0 nanomolar) [%]
Cc1cccc(C)c1OCC(=O)N[C@@H](Cc1ccccc1)[C@@H](O)C[C@H](Cc1ccccc1)NC(=O)[C@@H](N1CCNC1=O)C(C)(C)C [Example 8] | 0.019 | 17800 | 55.6 |  | 
Cc1cccc(C)c1OCC(=O)N[C@@H](Cc1ccccc1)[C@@H](O)C[C@H](Cc1ccccc1)NC(=O)[C@H](C(C)C)N1CCNC(=O)C1=O [Example 29C, (2S,3S,5S)-2-(2,6-Dimethylphenoxyacetyl)amino-3-hydroxy-5-[2S-(1-piperazin-2,3-dionyl)-3-methylbutanoyl]amino-1,6-diphenylhexane] | 0.427 | 56000 | 72.6 |  | 
Cc1cc(F)cc(C)c1OCC(=O)N[C@@H](Cc1ccccc1)[C@@H](O)C[C@H](Cc1ccccc1)NC(=O)[C@H](C(C)C)N1CCNC1=O [Example 12B, (2S,3S,5S)-2-(4-Fluoro-2,6-dimethylphenoxyacetyl) amino-3-hydroxy-5-(2S-(1-imidazolidin-2-onyl)-3-methyl-butanoyl) amino-1,6-diphenylhexane] | 0.093 | 19100 | 76.8 |  | 
Cc1cccc(C)c1OCC(=O)N[C@@H](Cc1ccccc1)[C@@H](O)C[C@H](Cc1ccccc1)NC(=O)[C@H](C(C)C)N1CCCC1=O [Example 17C, (2S,3S,5S)-2-(2,6-Dimethylphenoxyacetyl) amino-3-hydroxy-5-(2S-(1-pyrrolidin-2-onyl)-3-methyl-butanoyl) amino-1,6-diphenylhexane] | 0.051 | 19000 | 87.2 |  | 
Cc1cccc(C)c1OCC(=O)N[C@@H](Cc1ccccc1)[C@@H](O)C[C@H](Cc1ccccc1)NC(=O)[C@H](C(C)C)N1CCNC1=O [Example 1P, (2S, 3S, 5S)-2-(2,6-dimethylphenoxyacetyl) amino-3-hydroxy-5-[2S-(1-imidazolidin-2-onyl)-3-methyl-butanoyl] amino-1,6-diphenylhexane] | 0.01 | 41300 |  | 92.6 | 
Cc1ncnc(C)c1OCC(=O)N[C@@H](Cc1ccccc1)[C@@H](O)C[C@H](Cc1ccccc1)NC(=O)[C@H](C(C)C)N1CCNC1=O [Example 13B, (2S,3S,5S)-2-(4,6-Dimethylpyrimidin-5-oxy-acetyl) amino-3-hydroxy-5-(2S-(1-imidazolidin-2-onyl)-3-methyl-butanoyl) amino-1,6-diphenylhexane] |  |  |  |  | 56.2
Cc1cccc(C)c1OCC(=O)N[C@@H](Cc1ccccc1)[C@@H](O)C[C@H](Cc1ccccc1)NC(=O)[C@H](C(C)C)N1CCOC1=O [Example 3C, (2S, 3S, 5S)-2-(2,6-Dimethylphenoxyacetyl) amino-3-hydroxy-5-[2S-(3-oxazolidin-2-onyl)-3-methyl-butanoyl] amino-1,6-diphenylhexane] | 0.025 | 49500 | 86.9 |  | 
CC(C)[C@@H](C(=O)N[C@@H](Cc1ccccc1)C[C@H](O)[C@H](Cc1ccccc1)NC(=O)OCc1cncs1)N1CCNC1=O [Example 6F, (2S,3S,5S)-2-(N-((5-Thiazolyl)methoxycarbonyl)amino)-5-((2S-(1-imidazolidin-2-onyl)-3-methyl-butanoyl)-amino)-3-hydroxy-1,6-diphenylhexane] | 0.193 | > 100000 | 61.4 |  | 
Cc1cccc(C)c1OCC(=O)N[C@@H](Cc1ccccc1)[C@@H](O)C[C@H](NC(=O)[C@H](C(C)C)N1CCC(=O)NC1=O)C(C)C [Example 28, (2S,3S,5S)-2-(2,6-Dimethylphenoxyacetyl) amino-3-hydroxy-5-[2S-(1-tetrahydro-pyrimid-2,4-dionyl)-3-methylbutanoyl]amino-1-phenyl-6-methylheptane] | 0.011 | 72200 | 86.6 |  | 
Cc1cccc(C)c1CCC(=O)N[C@@H](Cc1ccccc1)[C@@H](O)C[C@H](Cc1ccccc1)NC(=O)[C@H](C(C)C)N1CCCNC1=O [Example 20D, (2S,3S,5S)-2-(3-(2,6-Dimethylphenyl)propanoyl) amino-3-hydroxy-5-(2S-(1-tetrahydropyrimidin-2-onyl)-3-methyl-butanoyl) amino-1,6-diphenylhexane] | 0.283 | 24100 |  |  | 
Cc1ccnc(C)c1OCC(=O)N[C@@H](Cc1ccccc1)[C@@H](O)C[C@H](Cc1ccccc1)NC(=O)[C@H](C(C)C)N1CCNC1=O [Example 15, (2S,3S,5S)-2-(2,4-Dimethyl-pyridin-3-oxy-acetyl) amino-3-hydroxy-5-(2S-(1-imidazolidin-2-onyl)-3-methyl-butanoyl) amino-1,6-diphenylhexane] | 0.119 | > 100000 | 48 |  | 
Cc1cccc(C)c1OCC(=O)N[C@@H](Cc1ccccc1)[C@@H](O)C[C@H](Cc1ccccc1)NC(=O)[C@H](C(C)C)N1C(=O)CCC1=O [Example 18C, (2S,3S,5S)-2-(2,6-Dimethylphenoxyacetyl) amino-3-hydroxy-5-(2S-(1-pyrrolidin-2,5-dionyl)-3-methyl-butanoyl) amino-1,6-diphenylhexane] | 0.329 | 19100 | 57.8 |  | 
Cc1cccc(C)c1OCC(=O)N[C@@H](Cc1ccccc1)[C@@H](O)C[C@H](Cc1ccccc1)NC(=O)[C@H](C(C)C)N1CCNNC1=O [Example 26H, (2S,3S,5S)-2-(2,6-Dimethylphenoxyacetyl) amino-3-hydroxy-5[2S-(4-aza-1-tetrahydro-pyrimid-2-onyl)-3-methyl-butanoyl]amino-1,6-diphenylhexane] | 0.015 | 33000 | 94.6 |  | 
Cc1cccc(C)c1OCC(=O)N[C@@H](Cc1ccccc1)[C@@H](O)C[C@H](Cc1ccccc1)NC(=O)[C@H](C(C)C)N1CCNC1=S [Example 9B, (2S,3S,5S)-2-(2,6-Dimethylphenoxyacetyl)amino-3-hydroxy-5-(2S-(1-imidazolidin-2-thionyl)-3-methylbutanoyl)amino-1,6-diphenylhexane] | 0.272 | 19300 | 62.6 |  | 
Cc1cc(N)cc(C)c1OCC(=O)N[C@@H](Cc1ccccc1)[C@@H](O)C[C@H](Cc1ccccc1)NC(=O)[C@H](C(C)C)N1CCNC1=O [Example 10F, (2S,3S,5S)-2-(4-Amino-2,6-dimethylphenoxyacetyl) amino-3-hydroxy-5-(2S-(1-imidazolidin-2-onyl)-3-methyl-butanoyl) amino-1,6-diphenylhexane] | 0.047 | 92000 | 81 |  | 
CC(C)(C)[C@@H](C(=O)N[C@@H](Cc1ccccc1)C[C@H](O)[C@H](Cc1ccccc1)NC(=O)OCc1cncs1)N1CCNC1=O [Example 7B, (2S,3S,5S)-2-(N-((5-Thiazolyl)-methoxycarbonyl)amino)-3-hydroxy-5-(2S-(1-imidazolidin-2-onyl)-3,3-dimethylbutanoyl)amino-1,6-diphenylhexane] | 0.204 | > 100000 | 67.1 |  | 
Cc1cccc(C)c1OCC(=O)N[C@@H](Cc1ccccc1)[C@@H](O)C[C@H](Cc1ccccc1)NC(=O)[C@H](C(C)C)n1ccc(=O)[nH]c1=O [Example 23C, (2S,3S,5S)-2-(2,6-Dimethylphenoxyacetyl) amino-3-hydroxy-5-(2S-(1-dihydropyrimid-2,4-dionyl)-3-methyl-butanoyl) amino-1,6-diphenylhexane] |  |  | 86 |  | 
CC(C)[C@@H](C(=O)N[C@@H](Cc1ccccc1)C[C@H](O)[C@H](Cc1ccccc1)NC(=O)O[C@@H]1CCS(=O)(=O)[C@@H]1C(C)C)N1CCCNC1=O [Example 22E, (2S,3S,5S)-2-(cis(±)-1,1-dioxo-2-isopropyl-3-tetrahydrothiophenoxy)amino-3-hydroxy-5-(2S-(1-tetrahydropyrimid-2-onyl)-3-methylbutanoyl)amino-1,6-diphenylhexane] |  |  | 71.8 |  | 
